Measured values taken from patent US20070105215A1, “METHOD OF CULTURING STEM CELLS USING ABC TRANSPORTERS” (SAMSUNG ELECTRONICS CO., LTD., priority 2005, published 2007).
Like-named read-outs stand apart in the source and are kept apart here.

Tests used:
[1] = Cell activity/viability of K562 cells treated with Mitoxantrone (Sulforhodamine B kit), single culture; type: cell-based; conditions: human, K562 cells (no ABC transporter); K562 single culture, Mitoxantrone 0.4 M, incubated for 96 hours
Protocol: (§1) This was performed in the same manner as in Example 1, except that K562 (chronic myelogenous leukemia) cells having no ABC transporter were incubated in place of the A549 cells.
(§2) This was performed in the same manner as in Example 1, except that K562 cells having no ABC transporter were used in place of the A549 cells.

[2] = system: K562 (chronic myelogenous leukemia) cells having no ABC transporter; assay: as above; type: cell-based
Protocol: as §1, §2

[3] = Coculture of A549 and K562 cells treated with Mitoxantrone, viability of A549 cells; type: cell-based; conditions: human, A549 cells cocultured with K562 cells, A549 co-cultured with K562, Mitoxantrone 0.4 M
[4] = Coculture of A549 and K562 cells treated with Mitoxantrone, viability of K562 cells; type: cell-based; conditions: human, K562 cells cocultured with A549 cells, K562 coculture with A549, Mitoxantrone 0.4 M
[5] = system: A549 (human lug carcinoma cell ATCC no.CCL-185), having ABC transporters of the ABCG2 family

With `O=C1c2c(O)ccc(O)c2C(=O)c2c(NCCNCCO)ccc(NCCNCCO)c21` [Mitoxantrone] as the molecule, how does the viability at 96 h, 0.4 M [1] read?
The viability at 96 h, 0.4 M was 28%.

And the cell activity ([2]; K562, Mitoxantrone concentration of 0.1M (FIG. 6))?
The cell activity was “about 60%”.

And the cell activity ([2]; K562, Mitoxantrone concentration of 0.2M (FIG. 6))?
The cell activity was “almost zero”.

What about the viability at 96 h, 0.4 M [3] of the same molecule?
Its viability at 96 h, 0.4 M is 92%.

What about the viability at 96 h, 0.4 M [4] of the same molecule?
The viability at 96 h, 0.4 M was 17%.

What about the cell activity ([5]; A549, Mitoxantrone concentration of 0.4M (FIG. 6)) of the same molecule?
The cell activity was 98%.

What about the cell activity ([5]; A549, Mitoxantrone concentration of 1.0M (FIG. 6)) of the same molecule?
The cell activity was 86%.

And the cell activity ([5]; A549, Mitoxantrone concentration of 2.6 (FIG. 6))?
Its cell activity is 68%.
